Test results from PubChem BioAssay AID2060489 (Molecular Pharmacology Branch, DTP, NCI, 2025).
Where “and” joins values, the source holds several entries; their conditions need not be identical. Identical values can stand only once.

System: 922993-354-T-J3-PDC complex spheroids, viability
Experiment: Anticancer human tumor 922993-354-T-J3-PDC patient-derived endometrial carcinoma cell line growth inhibition [GQUAD]
Conditions: for viability, T/C: stronger effect = lower value
From the text: DNA G-quadruplex Stabilizer Agents in Combinations in Complex Spheroids
A high-throughput screen of multi-cell type tumor spheroids was designed to identify active combinations of DNA G-quadruplex stabilizer agents and targeted small molecules. Complex spheroids include a stromal component modeled by human endothelial cells (HUVEC) and fibroblasts modeled by human mesenchymal stem cells (MSCs). The concentration ranges selected for each drug and investigational agent were based upon clinically achievable concentrations if the clinical Cmax of the agent was known.
Compounds. The drugs and investigational agents: pidnarulex (CX-5461; NSC782164), APTO-253 (NSC789042), BRACO-19 (NSC847499), peposertib (NSC802822), ceralasertib (NSC780249), elimusertib (NSC800525), camonsertib (NSC841442), AZD-1390 (NSC803789), olaparib (NSC753686), talazoparib (NSC767125), ART-558 (NSC835418), sotorasib (NSC818433), MRTX-1133 (NSC836407), SN-38 (NSC673596), topotecan (NSC609699), etoposide (NSC141540), doxorubicin (NSC123127), gemcitabine (NSC613327), 5-fluorouracil (NSC19893), paclitaxel (NSC125973), vemurafenib (NSC761431), panobinostat (NSC761190), R-306465 (JNJ-16241199; NSC773264), adavosertib (NSC754352), TP-3654 (NSC805149), carboplatin (NSC241240), KSQ-4279 (NSC840948), and staurosporine (NSC755774) were obtained from the National Cancer Institute (NCI) Developmental Therapeutics Program Chemical Repository (34). The FDA-approved anticancer drug set is available from the NCI Developmental Therapeutics Program. […] The stock solutions were prepared in dimethyl sulfoxide (DMSO, Sigma-Aldrich, St. Louis, MO, cat. D2650) at 800-fold the tested concentration and stored at -70 degrees C prior to their use. All drugs and investigational agents were tested over a range starting from a high concentration at or near the clinical Cmax and decreasing in half-log increments. If the clinical Cmax for an agent had not been determined, the highest concentration tested was 10 microM.
2.3 Cell Culture. All cells were maintained in an incubator at 37 degrees C and 5% CO2 with 95% humidity. The PDC lines were cultured according to standard operating procedures established by the NCI PDMR. All PDCs were thawed and cultured in Matrigel-coated flasks prepared with a working solution of 1X Ham's F-12 nutrient mix, without supplementation (Invitrogen, cat. 11765054), 100 U/mL penicillin-streptomycin (Invitrogen, cat. 15140122), and 2.5% Matrigel (Corning Inc., cat. 354248) for the first three passages. The 857933-349-R-J2-PDC line was cultured in 6C/Colon 1B media, which includes advanced DMEM/F-12 (Thermo Fisher Scientific, cat. 12634028), 10 mM HEPES (Thermo Fisher Scientific, cat. 15630080), 1X GlutaMAX supplement (Thermo Fisher Scientific, cat. 35050061), 0.1 mg/mL primocin (InvivoGen, cat. ant-pm-2), 10% defined fetal bovine serum, heat inactivated (HyClone Laboratories Inc., cat. SH30070.03HI), 50% L-WRN conditioned media (ATCC, cat. CRL-3276), 1.25 mM N-Acetyl-L-cysteine (Sigma-Aldrich, cat. A9165), 10 mM nicotinamide (Sigma-Aldrich, cat. N0636), 1X B-27 supplement (Thermo Fisher Scientific, cat. 17504044), 1X N-2 supplement (Thermo Fisher Scientific, cat. 17502048), 10 microM Y-27632 dihydrochloride (Tocris Bioscience, cat. 1254), and 50 ng/mL human EGF recombinant protein (Thermo Fisher Scientific, cat. PHG0311). The 485176-168-R4-J1-PDC line was cultured in Panc media, which includes all 6C/Colon 1B media components plus 100 ng/mL human FGF-10 (Thermo Fisher Scientific, cat. 100-26), 500 nM SB-431542 (Selleckchem, cat. S1067), and gastrin (Tocris, cat. 3006).
[…]

[1] = curve of first compound, second compound 0.0316 µM
[2] = curve of first compound, second compound 0.1 µM
[3] = curve of first compound, second compound 0.316 µM
[4] = curve of first compound, second compound 1 µM
[5] = curve of first compound, second compound 3.16 µM
[6] = curve of first compound, second compound 10 µM
[7] = second compound 0.0316 µM, first compound 0.0316 µM
[8] = second compound 0.0316 µM, first compound 0.1 µM
[9] = second compound 0.0316 µM, first compound 0.316 µM
[10] = second compound 0.0316 µM, first compound 1 µM
[11] = second compound 0.0316 µM, first compound 3.16 µM
[12] = second compound 0.0316 µM, first compound 10 µM
[13] = second compound 0.1 µM, first compound 0.0316 µM
[14] = second compound 0.1 µM, first compound 0.1 µM
[15] = second compound 0.1 µM, first compound 0.316 µM
[16] = second compound 0.1 µM, first compound 1 µM
[17] = second compound 0.1 µM, first compound 3.16 µM
[18] = second compound 0.1 µM, first compound 10 µM
[19] = second compound 0.316 µM, first compound 0.0316 µM
[20] = second compound 0.316 µM, first compound 0.1 µM
[21] = second compound 0.316 µM, first compound 0.316 µM
[22] = second compound 0.316 µM, first compound 1 µM
[23] = second compound 0.316 µM, first compound 3.16 µM
[24] = second compound 0.316 µM, first compound 10 µM
[25] = second compound 1 µM, first compound 0.0316 µM
[26] = second compound 1 µM, first compound 0.1 µM
[27] = second compound 1 µM, first compound 0.316 µM
[28] = second compound 1 µM, first compound 1 µM
[29] = second compound 1 µM, first compound 3.16 µM
[30] = second compound 1 µM, first compound 10 µM
[31] = second compound 3.16 µM, first compound 0.0316 µM
[32] = second compound 3.16 µM, first compound 0.1 µM
[33] = second compound 3.16 µM, first compound 0.316 µM
[34] = second compound 3.16 µM, first compound 1 µM
[35] = second compound 3.16 µM, first compound 3.16 µM
[36] = second compound 3.16 µM, first compound 10 µM
[37] = second compound 10 µM, first compound 0.0316 µM
[38] = second compound 10 µM, first compound 0.1 µM
[39] = second compound 10 µM, first compound 0.316 µM
[40] = second compound 10 µM, first compound 1 µM
[41] = second compound 10 µM, first compound 3.16 µM
[42] = second compound 10 µM, first compound 10 µM
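Note: spheroids exposed to compounds for seven days.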
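Throughout, for viability, T/C: 100% = DMSO vehicle control viability.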

What does the source list for `CC1COCCN1c1cc(C2(S(C)(=N)=O)CC2)nc(-c2ccnc3[nH]ccc23)n1` (stereo unspecified) + Cc1cnc(CNC(=O)c2c(=O)c3ccc(N4CCCN(C)CC4)nc3n3c2sc2ccccc23)cn1?
IC50 [1]: 7.86 µM; IC50 [2]: 5.47 µM; IC50 [3]: 0.172 µM; IC50 [4]: > 10 µM; IC50 [5]: > 10 µM; IC50 [6]: < 0.0316 µM; viability, T/C [7]: 87.9%; viability, T/C [8]: 79.4%; viability, T/C [9]: 82.8%; viability, T/C [10]: 67.9%; viability, T/C [11]: 91.5%; viability, T/C [12]: 41.6%; viability, T/C [13]: 70.4%; viability, T/C [14]: 63.5%; viability, T/C [15]: 55.2%; viability, T/C [16]: 61%; viability, T/C [17]: 66%; viability, T/C [18]: 35.5%; viability, T/C [19]: 59.9%; viability, T/C [20]: 50.7%; viability, T/C [21]: 50.9%; viability, T/C [22]: 38.8%; viability, T/C [23]: 50.5%; viability, T/C [24]: 39.2%; viability, T/C [25]: 46.3%; viability, T/C [26]: 60.1%; viability, T/C [27]: 51.7%; viability, T/C [28]: 45.2%; viability, T/C [29]: 48.5%; viability, T/C [30]: 53.3%; viability, T/C [31]: 49.1%; viability, T/C [32]: 52.8%; viability, T/C [33]: 54.4%; viability, T/C [34]: 48%; viability, T/C [35]: 54.4%; viability, T/C [36]: 52.5%; viability, T/C [37]: 51.8%; viability, T/C [38]: 42.9%; viability, T/C [39]: 54%; viability, T/C [40]: 50.6%; viability, T/C [41]: 47.3%; viability, T/C [42]: 53.6%

`COc1ncnc(C2CC2)c1-c1ncc2cnn(Cc3ccc(-c4nc(C(F)(F)F)cn4C(C)C)cc3)c2n1` + Cc1cnc(CNC(=O)c2c(=O)c3ccc(N4CCCN(C)CC4)nc3n3c2sc2ccccc23)cn1 was tested. Which IC50 [1] did it give?
The IC50 was greater than 10 µM.

And the IC50 [2]?
The IC50 was greater than 10 µM.

And the IC50 [3]?
The IC50 was less than 0.0316 µM.

And the IC50 [4]?
Its IC50 is less than 0.0316 µM.

What about the IC50 [5] of the same compound?
The IC50 was less than 0.0316 µM.

What about the IC50 [6] of the same compound?
Its IC50 is 3.23 µM.

And the viability, T/C [7]?
Its viability, T/C is 98.1%.

And the viability, T/C [8]?
Its viability, T/C is 72.7%.

And the viability, T/C [9]?
The viability, T/C was 80.5%.

And the viability, T/C [10]?
Its viability, T/C is 48.3%.

What about the viability, T/C [11] of the same compound?
The viability, T/C was 59%.

And the viability, T/C [12]?
Its viability, T/C is 63.4%.

What about the viability, T/C [13] of the same compound?
The viability, T/C was 67.8%.

What about the viability, T/C [14] of the same compound?
The viability, T/C was 44.2%.

And the viability, T/C [15]?
The viability, T/C was 45.6%.

And the viability, T/C [16]?
The viability, T/C was 44.3%.

And the viability, T/C [17]?
The viability, T/C was 51.4%.

What about the viability, T/C [18] of the same compound?
Its viability, T/C is 70.4%.

What about the viability, T/C [19] of the same compound?
Its viability, T/C is 41%.

And the viability, T/C [20]?
The viability, T/C was 34.5%.

And the viability, T/C [21]?
The viability, T/C was 41.8%.

And the viability, T/C [22]?
Its viability, T/C is 49.3%.

What about the viability, T/C [23] of the same compound?
Its viability, T/C is 51.3%.

And the viability, T/C [24]?
The viability, T/C was 52.7%.

What about the viability, T/C [25] of the same compound?
Its viability, T/C is 44.5%.

What about the viability, T/C [26] of the same compound?
The viability, T/C was 44.6%.

And the viability, T/C [27]?
The viability, T/C was 41.6%.

What about the viability, T/C [28] of the same compound?
The viability, T/C was 46.3%.

What about the viability, T/C [29] of the same compound?
Its viability, T/C is 54.9%.

What about the viability, T/C [30] of the same compound?
Its viability, T/C is 67.1%.

What about the viability, T/C [31] of the same compound?
The viability, T/C was 40.9%.

And the viability, T/C [32]?
Its viability, T/C is 41.7%.

And the viability, T/C [33]?
Its viability, T/C is 50.3%.

What about the viability, T/C [34] of the same compound?
The viability, T/C was 49.2%.

And the viability, T/C [35]?
The viability, T/C was 43%.

And the viability, T/C [36]?
Its viability, T/C is 55.7%.

What about the viability, T/C [37] of the same compound?
The viability, T/C was 48.6%.

What about the viability, T/C [38] of the same compound?
The viability, T/C was 47.7%.

What about the viability, T/C [39] of the same compound?
Its viability, T/C is 52.6%.

What about the viability, T/C [40] of the same compound?
The viability, T/C was 49%.

And the viability, T/C [41]?
Its viability, T/C is 53.3%.

And the viability, T/C [42]?
The viability, T/C was 40.1%.

`C=CCn1c(=O)c2cnc(Nc3ccc(N4CCN(C)CC4)cc3)nc2n1-c1cccc(C(C)(C)O)n1` was tested. Which viability, T/C (compound 0.0316 µM) did it give?
The viability, T/C was 79.8% and 93.2% and 78.9%.

What about the viability, T/C (compound 0.1 µM) of the same compound?
The viability, T/C was 83.2% and 85.1% and 115%.

What about the viability, T/C (compound 0.316 µM) of the same compound?
The viability, T/C was 107% and 109% and 113%.

And the viability, T/C (compound 1 µM)?
The viability, T/C was 97.1% and 94.7% and 90.2%.

And the viability, T/C (compound 3.16 µM)?
The viability, T/C was 66.1% and 73.2% and 82.1%.

What about the viability, T/C (compound 10 µM) of the same compound?
Its viability, T/C is 14.4% and 13.4% and 27.5%.

And the IC50 (curve of compound)?
The IC50 was 4.52 µM and 4.95 µM and 6.19 µM.
